Series [1] deals with normal uninjured rat carotid arteries (medial and adventitial cell populations). Kind of series: In vivo rat carotid artery acellularity after PDT. Further details: species or system Sprague Dawley rats. To be noted: for Max % rat Artery Accelularity: Table 3, drug dose 1 μMol, 50 J/cm^2, 3 days post treatment. The method in brief: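 Metallated photosensitizers light-activated in normal uninjured rat left common carotid via balloon catheter introduced through femoral arteriotomy under isoflurane; excitation 575 nm (Ga, Zn, Al, Sn) or 532 nm (Pt). Arteries harvested 3 days post-treatment, H&E-stained; medial and adventitial cell density assessed by light microscopy.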

The subject of series [2] is V79 (Chinese Hamster Lung Fibroblasts) cells. Kind of series: In vitro cytotoxicity assay (light EC50, Alamar blue). In kind it is cell-based. To be noted: Table 3 porphyrins, 24 h drug incubation, 532 nm, 1.25 J/cm^2, read-out: In Vitro EC50 Light. The method in brief: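 V79 cells in phenol-free 5% FBS/DMEM exposed 24 h to photosensitizer at final 0.01–5.0 μM, six replicates, then washed and light-treated, with a dark plate as control. Survival by Alamar blue after 24 h dark incubation, read at 570/600 nm.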
On the technique in general: Resazurin is reduced to fluorescent resorufin, in cell work by metabolically active cells.

The subject of series [3] is normal skin of CD Hairless male rats. Format: in vivo, rat. The method, boiled down:
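Liposomal egg yolk phospholipid photosensitizer given as single i.v. tail-vein bolus at 1, 1.5 and 2 μmol/kg; skin spots irradiated with 532 nm laser (150 mW/cm^2, 150J, 1 cm) at 1, 6, 24, 48, 96 hrs post injection. Value is time of last observed skin response spot.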

Read-outs that look alike come from different tables or passages of the source.

Experimental findings from patent US6827926B2, “Metallotetrapyrrolic photosensitizing agents for use in photodynamic therapy” (Miravant Pharmaceuticals, Inc., priority 2001, dated 2004) are described below.

By EC50 is commonly meant the concentration giving half of the maximal effect.

For `COC(=O)CCC1=C(C)c2cc3[n-]c(cc4nc(cc5[n-]c(cc1n2)c(CCC(=O)OC)c5C)C=C4C)cc3C.[Cl-].[Ga+3]` [Example 4, Gallium Chloride Deuteroporphyrin Dimethyl Ester], the “Max % rat Artery Accelularity” value in series [1] is 95%. For the same compound, in series [2], the EC50 came out at 400 nM. In series [3] (rat, in vivo), the “Normal skin Response (1 μmol)” value turned out to be 6 h.
In the case of `CCC1=C(C)C2=[N+]3C1=Cc1c(C)c(CC)c4[n]1[Ga-2]31([Cl])[n]3c(c(C)c(CCC(=O)NC)c3=CC3=[N+]1C(=C4)C(C)=C3CCC(=O)NC)=C2` [Example 121, Gallium Chloride Mesoporphyrin N-methyl Amide], in series [1], the “Max % rat Artery Accelularity” value amounted to 60%. The 50% effective concentration (EC50) in series [2] worked out at 400 nM. Besides, the “Normal skin Response (1 μmol)” value in series [3] (rat, in vivo) was determined as 6 h.
With “Gallium Chloride Mesoporphyrin Dimethyl Ester [Example 1]”, in series [1], the “Max % rat Artery Accelularity” value is reported as 95%. In addition, the “acellularity (rat artery)” value in series [1] (text b234, 1 μmol/Kg (printed 1 mol/Kg for 57)) came out at 95%. For the same compound, in series [2], the concentration giving a half-maximal response (EC50) was determined as 200 nM. In series [3] (Table 3, time of last skin spot observed post injection, 1 μmol, 532 nm laser), the “Normal skin Response (1 μmol)” value came to 48 h. In addition, the “normal skin responses, time post drug injection” value in series [3] (rats, drug dose 1 μmol/Kg) was 48 h.
